Experiments:
[1] = tested on: HCT116, a colorectal carcinoma cell line; test: Tetrazolium dye (MTT) proliferation assay; assay type: cell-based; settings: Homo sapiens, HCT-116; HCT116 cells, inhibition of cell proliferation
In short: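 Cells in McCoy's 5A with 10% FCS, seeded for log growth, dosed next day in duplicate (0.3% DMSO final) and incubated to time points set by growth curves at 37° C. MTT at 1 mg/ml for 2.5–3 h, formazan in ethanol, A570 minus 650 nm reference. IC50 by linear regression of log concentration versus % inhibition.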

human cyclin E-CDK2 = human cyclin E-CDK2 (Homo sapiens, UniProt P24941); test: FlashPlate kinase assay, cyclin E-CDK2; assay type: biochemical; settings: Rb protein substrate, 1 μM ATP, 33P-ATP, 30 minutes room temperature
human cyclin D1-CDK4 = human cyclin D1-CDK4 (Homo sapiens, UniProt P11802); test: FlashPlate kinase assay, cyclin D1-CDK4; assay type: biochemical; settings: Rb protein substrate, 1 μM ATP, 33P-ATP, 30 minutes room temperature; read-out: CDK4 IC50
human cyclin B-CDK1 = human cyclin B-CDK1 (Homo sapiens, UniProt P06493); test: FlashPlate kinase assay, cyclin B-CDK1; assay type: biochemical; settings: Rb protein substrate, 1 μM ATP, 33P-ATP, 30 minutes room temperature
human cyclin B-CDK1, sequence (P06493 whole entry): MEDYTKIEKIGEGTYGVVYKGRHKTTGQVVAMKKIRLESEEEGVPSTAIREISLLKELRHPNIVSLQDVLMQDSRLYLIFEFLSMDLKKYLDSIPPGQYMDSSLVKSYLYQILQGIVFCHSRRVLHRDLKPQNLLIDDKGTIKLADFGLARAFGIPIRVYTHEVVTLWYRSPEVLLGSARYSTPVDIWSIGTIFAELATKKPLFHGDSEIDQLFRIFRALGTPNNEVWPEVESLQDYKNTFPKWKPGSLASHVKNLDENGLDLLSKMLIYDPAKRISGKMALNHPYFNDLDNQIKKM
human cyclin B-CDK1, sequence (P14635 whole entry partner): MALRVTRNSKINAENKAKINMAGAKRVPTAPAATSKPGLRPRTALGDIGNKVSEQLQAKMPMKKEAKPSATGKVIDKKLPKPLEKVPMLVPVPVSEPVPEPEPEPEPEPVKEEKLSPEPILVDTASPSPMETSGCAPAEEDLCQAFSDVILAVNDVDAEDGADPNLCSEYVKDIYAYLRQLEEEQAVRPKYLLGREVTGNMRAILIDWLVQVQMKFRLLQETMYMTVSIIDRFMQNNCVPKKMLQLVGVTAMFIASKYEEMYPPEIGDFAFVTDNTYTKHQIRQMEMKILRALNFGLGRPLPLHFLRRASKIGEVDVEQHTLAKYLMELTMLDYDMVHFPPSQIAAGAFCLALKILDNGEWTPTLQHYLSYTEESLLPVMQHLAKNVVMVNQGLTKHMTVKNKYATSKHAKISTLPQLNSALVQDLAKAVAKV

human cyclin D1-CDK4, sequence (P11802 whole entry): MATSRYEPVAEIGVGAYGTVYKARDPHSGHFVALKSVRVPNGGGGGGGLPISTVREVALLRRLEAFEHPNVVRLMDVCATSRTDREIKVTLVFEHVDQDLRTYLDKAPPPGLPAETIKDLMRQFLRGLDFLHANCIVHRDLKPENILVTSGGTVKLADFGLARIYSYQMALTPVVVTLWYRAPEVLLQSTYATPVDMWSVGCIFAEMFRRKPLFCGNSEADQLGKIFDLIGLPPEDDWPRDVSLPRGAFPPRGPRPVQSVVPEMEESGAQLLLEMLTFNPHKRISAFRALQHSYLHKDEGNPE
human cyclin D1-CDK4, sequence (P24385 whole entry partner): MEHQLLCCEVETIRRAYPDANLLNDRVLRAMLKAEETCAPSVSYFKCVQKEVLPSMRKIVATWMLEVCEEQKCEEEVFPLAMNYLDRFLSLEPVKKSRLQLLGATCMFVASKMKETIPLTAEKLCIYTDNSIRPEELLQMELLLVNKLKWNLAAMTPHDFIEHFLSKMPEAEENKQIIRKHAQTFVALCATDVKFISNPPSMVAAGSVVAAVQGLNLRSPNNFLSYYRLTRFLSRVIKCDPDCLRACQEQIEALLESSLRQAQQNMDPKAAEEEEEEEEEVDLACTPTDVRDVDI

Nc1nc(Nc2ccc(N3CCC(N4CCCC4)CC3)cc2)sc1C(=O)c1cccc([N+](=O)[O-])c1 [Example 90, {4-Amino-2-[4-(4-pyrrolidin-1-yl-piperidin-1-yl)-phenylamino]-thiazol-5-yl}-(3-nitro-phenyl)-methanone]
IC50 [1]: 2820 nM | IC50 (human cyclin E-CDK2): 1670 nM | IC50 (human cyclin D1-CDK4): 7 nM | IC50 (human cyclin B-CDK1): 580 nM

Nc1nc(Nc2ccc(N3CCC(N4CCCC4)CC3)cc2)sc1C(=O)c1ccc2c(c1)OCO2 [Example 25, {4-Amino-2-[4-(4-pyrrolidin-1-yl-piperidin-1-yl)-phenylamino]-thiazol-5-yl}-benzo[1,3]dioxol-5-yl-methanone]
IC50 [1]: 2000 nM | IC50 (human cyclin E-CDK2): 2890 nM | IC50 (human cyclin D1-CDK4): 17 nM | IC50 (human cyclin B-CDK1): 216 nM

CCc1cccc(C(=O)c2sc(Nc3ccc(N4CCC(N5CCOCC5)CC4)cc3)nc2N)c1 [Example 116, {4-Amino-2-[4-(4-morpholin-4-yl-piperidin-1-yl)-phenylamino]-thiazol-5-yl}-(3-ethyl-phenyl)-methanone]
IC50 [1]: 2550 nM | IC50 (human cyclin E-CDK2): 750 nM | IC50 (human cyclin D1-CDK4): 15 nM | IC50 (human cyclin B-CDK1): 5590 nM

CCc1cccc(C(=O)c2sc(Nc3ccc(N4CCC(N(C)C)CC4)cc3)nc2N)c1 [Example 115, {4-Amino-2-[4-(4-dimethylamino-piperidin-1-yl)-phenylamino]-thiazol-5-yl}-(3-ethyl-phenyl)-methanone]
IC50 [1]: 1240 nM | IC50 (human cyclin E-CDK2): 1040 nM | IC50 (human cyclin D1-CDK4): 10 nM | IC50 (human cyclin B-CDK1): 2800 nM

Nc1nc(Nc2ccc(N3CCC(N4CCCCC4)CC3)cc2)sc1C(=O)c1ccc2c(c1)OCCO2 [Example 33, [4-Amino-2-(4-[1,4′]bipiperidinyl-1′-yl-phenylamino)-thiazol-5-yl]-(2,3-dihydro-benzo[1,4]dioxin-6-yl)-methanone]
IC50 [1]: 1680 nM | IC50 (human cyclin E-CDK2): 4950 nM | IC50 (human cyclin D1-CDK4): 9 nM | IC50 (human cyclin B-CDK1): 950 nM

— US7211576B2, “Diaminothiazoles” (Hoffmann-La Roche Inc., priority 2004, dated 2007)
